Paper PMC11597374, “Synthesis, Characterizations, Anti-Diabetic and Molecular Modeling Approaches of Hybrid Indole-Oxadiazole Linked Thiazolidinone Derivatives” (Pharmaceuticals, 2024)

Legend:
[1] = target: T1, α-amylase (Sus scrofa, UniProt P00690); assay: Alpha-amylase activity assay (starch, DNS, 540 nm); assay type: biochemical; conditions: standard acarbose
T1 sequence (P00690 16-511): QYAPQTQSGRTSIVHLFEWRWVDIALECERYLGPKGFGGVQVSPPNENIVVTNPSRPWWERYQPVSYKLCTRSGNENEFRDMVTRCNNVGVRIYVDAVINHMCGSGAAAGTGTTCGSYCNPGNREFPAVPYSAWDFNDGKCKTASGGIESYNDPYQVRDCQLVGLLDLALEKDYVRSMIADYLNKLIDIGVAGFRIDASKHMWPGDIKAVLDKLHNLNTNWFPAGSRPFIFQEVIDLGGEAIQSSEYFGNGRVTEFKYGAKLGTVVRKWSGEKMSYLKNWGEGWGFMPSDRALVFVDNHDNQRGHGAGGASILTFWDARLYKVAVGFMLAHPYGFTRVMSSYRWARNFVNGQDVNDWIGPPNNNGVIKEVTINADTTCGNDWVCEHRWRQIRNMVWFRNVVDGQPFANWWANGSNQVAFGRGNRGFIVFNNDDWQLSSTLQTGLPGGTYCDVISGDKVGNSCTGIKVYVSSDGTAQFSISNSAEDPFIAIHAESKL
Excerpt: (§1) In order to obtain biological profiles, all the derivatives were screened against enzymes α-amylase along and α-glucosidase.

[2] = target: α-glucosidase (Saccharomyces cerevisiae, UniProt P53341); assay: Alpha-glucosidase inhibition assay; assay type: biochemical; conditions: standard acarbose
Sequence of α-glucosidase (P53341 whole entry): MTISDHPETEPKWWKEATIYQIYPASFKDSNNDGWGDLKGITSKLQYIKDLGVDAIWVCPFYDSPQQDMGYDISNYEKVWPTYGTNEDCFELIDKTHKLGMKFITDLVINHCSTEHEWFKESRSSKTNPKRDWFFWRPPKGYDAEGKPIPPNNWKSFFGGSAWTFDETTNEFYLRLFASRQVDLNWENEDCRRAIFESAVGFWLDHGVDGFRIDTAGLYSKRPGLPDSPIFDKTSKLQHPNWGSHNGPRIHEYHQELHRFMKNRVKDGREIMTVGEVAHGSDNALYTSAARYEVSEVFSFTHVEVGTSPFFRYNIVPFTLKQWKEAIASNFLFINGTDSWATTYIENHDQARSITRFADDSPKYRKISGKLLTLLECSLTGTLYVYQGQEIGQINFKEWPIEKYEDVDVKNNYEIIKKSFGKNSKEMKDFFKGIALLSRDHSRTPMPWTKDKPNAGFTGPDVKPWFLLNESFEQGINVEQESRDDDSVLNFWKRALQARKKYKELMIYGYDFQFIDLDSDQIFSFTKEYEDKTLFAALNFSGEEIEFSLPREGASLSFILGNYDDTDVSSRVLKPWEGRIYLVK
Excerpt: as §1

O=C1CS/C(=N\c2nnc(CC(c3c[nH]c4ccccc34)C(F)(F)F)o2)N1c1cccc(Oc2ccccc2)c1 (centres unmarked) [Compound 14]
Alpha Amylase IC50 [1]: non-active
Alpha Glucosidase IC50 [2]: non-active
